{"source": "patent US4812443A", "about": "“Methods for enhancing differentiation and proliferation of hematopoietic progenitor cells” (Kuraray Co., Ltd., priority 1984, dated 1989)", "key": {"[1]": {"system": "reserpine-induced blepharoptosis", "assay": "Reserpine antagonistic action in mice", "assay_type": "in vivo, mouse (ddY-strain)", "settings": "150, 300 and 600 mg/kg; reserpine 4 mg/kg i.p.; one hour after administration; vs control", "source_text": "(§1) Since the dolichol is a water-insoluble oily liquid, it was used as a solution in sesame oil in the case of oral administration, and as a suspension in a nonionic surfactant (HCO-60, a trade name for a product of Nikko Chemical Co., Ltd.) in the case of intraperitoneal administration and in an in vitro test in the following experiment.\nIn the following experiment, ddY-strain male mice, Wistar-strain male rats (Shizuoka Laboratory Animal Center), Japanese white male rabbits (Carely) and Hartley-strain male guinea pigs (Clea Japan Inc.) were used. The animals were kept under conditions including a temperature of 23±1° C., a humidity of 55±10%, an illuminating time (7:00 am to 9.00 pm) and 15 ventilations per hour. The mice and rats were fed with solid feeds MF (a product of Oriental Yeast Co., Ltd.) and the guinea pigs and rabbits were fed with solid feeds GM-3 and RM-1 (Funabashi Farm Co.). They were allowed to take tap water freely. […]\nddY-strain male mice (27-30 g), 6 per group, were used. […] One hour after the administration of dolichol, the degree of blepharoptosis in the mice was observed and recorded in accordance with the Rubin's standards of evaluation (0: normal opening of the eyes, 1: 1/4 blepharoptosis, 2: 1/2 blepharoptosis, 3: 3/4 blepharoptosis, 4: complete blepharoptosis)."}, "mice [2]": {"system": "mice", "assay": "Acute toxicity of dolichol in mice", "assay_type": "in vivo, mouse (ddY-strain)", "settings": "5,000 mg/kg orally or 1,000 mg/kg intraperitoneally", "description": "(1) Dolichol synthesized in Referential Example 1 below was used as a solution in sesame oil in the case of oral administration, or as a suspension in HCO-60 (a trade name for a nonionic surfactant made by Nikko Chemical Co., Ltd.) in the case of intraperitoneal administration.\nddY-strain mice (21-27 g), 6 per group, were used. Dolichol was administered to the mice in a dose of 5,000 mg/kg orally, or 1,000 mg/kg intraperitoneally on the 1st day of the test, and the mice were then observed for toxic symptoms and mortality for seven days. The body weights of the mice were measured before administration and on the 1st and 7th days. Control groups were each given sesame oil or HCO-60, and observed and weighed in the same way as in the case of the groups to which dolichol was administered. On the 7th day, all the mice were dissected and visually observed."}, "erythropoiesis": {"system": "erythropoiesis", "assay": "Erythropoiesis in vivo, 59Fe incorporation in phenylhydrazine-induced anemic mice (Run 6)", "set-up": "species or system mouse (BDF1-strain)", "settings": "250 mg/kg twice i.p.", "description": "Phenylhydrazine was administered to normal mice and hereditarily anemic mice to induce severe hemolytic anemia. Then, the rate of erythropoiesis during recovering of anemia was determined by measuring the rate of radioactive iron (^59 Fe) incorporation into newly formed red blood cells [P. M. Cotes, D. R. Bangham, Nature (London), 191, 1067 (1961)]. The testing method and results are described below.\nPhenylhydrazine hydrochloride (60 mg/kg) dissolved in normal saline solution was subcutaneously injected into BDF1 -strain mice (6 weeks old, female) three times, namely on the 1st, 2nd and 4th day of the experiment to produce phenylhydrazine-induced anemic mice. Dolichol in a dose of 250 mg/kg (25 mg of dolichol was emulsified in 1 ml of a 1% aqueous solution of sodium carboxymethyl cellulose; 0.2 ml/20 g of the body weight) was intraperitoneally administered to the mice twice, namely on the 1st and 2nd day. […] On the 6th day, 0.5 ml of the whole blood was taken from each mouse, and the radioactivity of ^59 Fe incorporated into the whole blood during the period of 48 hours was measured by an auto-gamma-counter. […] By assuming that the amount of the whole blood of each mouse was 7% of the body weight, the ^59 Fe incorporation rates were calculated in accordance with the following equation and averaged. […]"}, "corneal reflex": {"system": "corneal reflex", "assay": "Local anesthetic action in guinea pigs (corneal reflex)", "assay_type": "in vivo, guinea pig (Hartley-strain)", "settings": "up to 0.1%, dropped into the eyes", "source_text": "as §1\n(§2) In the following experiment, ddY-strain male mice, Wistar-strain male rats (Shizuoka Laboratory Animal Center), Japanese white male rabbits (Carely) and Hartley-strain male guinea pigs (Clea Japan Inc.) were used. The animals were kept under conditions including a temperature of 23±1° C., a humidity of 55±10%, an illuminating time (7:00 am to 9.00 pm) and 15 ventilations per hour. The mice and rats were fed with solid feeds MF (a product of Oriental Yeast Co., Ltd.) and the guinea pigs and rabbits were fed with solid feeds GM-3 and RM-1 (Funabashi Farm Co.). They were allowed to take tap water freely. The animals were preliminarily kept for more than one week, and those which were healthy in general conditions were used in the experiments.\nHartley-strain male guinea pigs (370-440 g), 3 per group, were used. Dolichol was dropped in a concentration of 0.001%, 0.01% and 0.1%, respectively, into the eyes of the guinea pigs. […]"}, "Diuretic action in rats": {"assay": "Diuretic action in rats", "assay_type": "in vivo, rat (Wistar-strain)", "settings": "150, 300 and 600 mg/kg; 6 hours after administration; vs control", "source_text": "as §1, §2\nWistar-strain male rats (80-90 g), 6 per group, were used. Immediately after administration of dolichol to the rats, normal saline solution was orally administered to the rats in a dose of 2.5 ml/100 g. […] Urine was taken 6 hours after administration of dolichol, and its amount was measured."}, "mice [3]": {"system": "mice", "assay": "Neuropharmacological test using mice (Irwin's method)", "assay_type": "in vivo, mouse (ddY-strain)", "settings": "150, 300 and 600 mg/kg i.p.", "source_text": "as §1, §2\nddY-strain male mice, 6 per group, were used, and their changes in behavior, nervous symptoms, autonomic nervous symptoms and toxic symptoms were observed, analyzed and recorded in accordance with the Irwin's method of observation. […]"}, "blood sugar": {"system": "blood sugar", "assay": "Blood sugar lowering action in rats (glucose-oxidase method)", "assay_type": "in vivo, rat (Wistar-strain)", "settings": "150, 300 and 600 mg/kg; two hours after administration; vs control", "source_text": "as §1, §2\nWistar-strain male rats (180-210 g), 6 per group, were used. Two hours after administration of dolichol to the rats, the blood was taken from the abdominal main vein of the rats, and the blood sugar level was measured by the glucose-oxidase method."}, "extracted ileum": {"system": "extracted ileum", "assay": "Peripheral action, extracted ileum of guinea pigs", "set-up": "species or system guinea pig (Hartley-strain)", "settings": "up to 10^-4 g/ml; 32° C.", "source_text": "as §1\nIn the following experiment, ddY-strain male mice, Wistar-strain male rats (Shizuoka Laboratory Animal Center), Japanese white male rabbits (Carely) and Hartley-strain male guinea pigs (Clea Japan Inc.) were used. The animals were kept under conditions including a temperature of 23±1° C., a humidity of 55±10%, an illuminating time (7:00 am to 9.00 pm) and 15 ventilations per hour. […]\nHartley-strain male guinea pigs (350 to 400 g), 3 per group, were used, and the extracted ileum samples were suspended in Tyrode solution at 32° C. through which air was introduced. The contraction of the ileum was recorded on an ink-writing oscillograph (EMP-3004, Nippon Photoelectric Co. through an isotonic transducer (TD-112S, Nippon Photoelectric Co.). The direct action of dolichol and the antagonistic action of dolichol against acetylcholine, histamine and nicotine in a concentration of 10^-6 g/ml, 10^-5 g/ml, and 10^-4 g/ml, respectively, were examined."}}}
{"substance": "dolichol", "values": [{"measurement": "Antagonistic action against reserpine-induced blepharoptosis", "setting": "[1]", "value": "no antagonistic action"}, {"measurement": "Changes in body weight", "setting": "mice [2]; 1st and 7th days, vs control", "value": "no sigificant difference was noted"}, {"measurement": "Abnormality in dissection", "setting": "mice [2]; 7th day", "value": "No abnormality was noted"}, {"measurement": "Mortality", "setting": "mice [2]; seven days", "value": "no case of death in all of the mice tested"}, {"measurement": "59Fe incorporation rate (%), dolichol administered group", "setting": "erythropoiesis; 48 hours, control group 48.2", "value": 50.2, "unit": "%"}, {"measurement": "Erythropoiesis enhancing ratio (%)", "setting": "erythropoiesis; percent increase of 59Fe incorporation rate vs control", "value": "+4.2%"}, {"measurement": "Disappearance of corneal reflex", "setting": "corneal reflex", "value": "no disappearance of corneal reflex"}, {"measurement": "Local anesthetic action", "setting": "corneal reflex", "value": "no local anesthetic action was observed"}, {"measurement": "Diuretic action (amount of urine)", "setting": "Diuretic action in rats", "value": "no significant difference was noted"}, {"measurement": "Effect on behaviors, nervous symptoms, autonomic nervous symptoms and toxic symptoms", "setting": "mice [3]", "value": "no effect was observed"}, {"measurement": "Blood sugar level", "setting": "blood sugar", "value": "no significant difference was noted"}, {"measurement": "Direct action on extracted ileum", "setting": "extracted ileum", "value": "no direct action"}]}
